Consider two compounds from patent EP0540782B1, “Use of analogues of polyisoprenyl pyrophosphate for inhibiting protein isoprenylation” (NEDERLANDSE ORGANISATIE VOOR …, priority 1991, dated 1993).

pIC50: −log10 of the molar value.

In assay [1] the target is farnesyl: protein transferase (Oryctolagus cuniculus, UniProt G1SFC8+G1T7D9). Description: Inhibition of farnesylation of p21ras precursor (H-ras protein) by farnesyl: protein transferase in rabbit reticulocyte lysate, [3H]-FPP incorporation. The note with it: read-out: IC50-values, H-ras protein 30 µg/ml, 1 µM [3H]-farnesyl pyrophosphate, 37°C for 30 min.
Sequence of farnesyl: protein transferase (G1T7D9 entry or part of it, one chain of several): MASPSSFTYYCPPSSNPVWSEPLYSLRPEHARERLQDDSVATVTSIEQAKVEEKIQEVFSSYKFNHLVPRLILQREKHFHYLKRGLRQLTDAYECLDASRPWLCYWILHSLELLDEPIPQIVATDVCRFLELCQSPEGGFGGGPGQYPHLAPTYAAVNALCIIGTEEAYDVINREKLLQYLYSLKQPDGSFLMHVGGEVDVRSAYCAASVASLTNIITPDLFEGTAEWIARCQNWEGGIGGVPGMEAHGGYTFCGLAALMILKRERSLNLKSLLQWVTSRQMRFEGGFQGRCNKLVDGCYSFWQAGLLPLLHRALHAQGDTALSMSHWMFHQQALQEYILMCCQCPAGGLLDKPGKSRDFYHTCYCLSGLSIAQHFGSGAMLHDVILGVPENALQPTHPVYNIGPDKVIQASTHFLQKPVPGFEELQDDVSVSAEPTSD
The target of a further assay is T1, squalene synthase (Rattus norvegicus, UniProt Q02769).
T1 construct: squalene synthase in rat liver microsomal preparations; from tissue; host or cells: rat liver microsomes
T1 sequence (Q02769 1-416): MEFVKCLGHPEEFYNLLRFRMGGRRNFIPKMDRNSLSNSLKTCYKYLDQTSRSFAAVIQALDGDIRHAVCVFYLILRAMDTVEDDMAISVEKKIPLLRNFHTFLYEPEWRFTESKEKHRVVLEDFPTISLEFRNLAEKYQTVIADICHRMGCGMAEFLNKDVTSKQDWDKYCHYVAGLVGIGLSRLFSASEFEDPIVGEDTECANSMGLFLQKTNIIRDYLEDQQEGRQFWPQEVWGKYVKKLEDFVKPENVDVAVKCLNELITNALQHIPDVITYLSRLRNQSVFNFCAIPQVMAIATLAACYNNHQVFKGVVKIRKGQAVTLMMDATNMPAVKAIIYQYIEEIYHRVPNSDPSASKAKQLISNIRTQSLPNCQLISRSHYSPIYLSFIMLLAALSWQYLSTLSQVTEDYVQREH
Kind of assay: Inhibition of squalene synthase in rat liver microsomal preparations. Type of assay: biochemical.

In the case of `CC(C)=CCCC(C)=CCCC(C)=CCCP(=O)(O)OP(=O)(O)O` [compound 1, farnesylmethylphosphonophosphate], the figures for the pIC50 (in assay [1]; against squalene synthase) were 5.40 and 3.32, respectively.

Regarding `CC(C)=CCCC(C)=CCCC(C)=CCP(=O)(O)OP(=O)(O)O` [compound 3, farnesylphosphonophosphate], the pIC50 in assay [1] is more than 6.00; against squalene synthase, 3.92.
